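The concentration for 50% growth inhibition is given as GI50. The concentration for full growth arrest is given as TGI.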
Tests used:
Assay in all cases: NCI anticancer screen, dose series, 384-well format
[1] = test system: 786-0 renal
[2] = test system: A498 renal
[3] = test system: A549 NSCLC
[4] = test system: ACHN renal
[5] = test system: BT-549 breast
[6] = test system: CAKI-1 renal
[7] = test system: CCRF-CEM leukemia
[8] = test system: COLO 205 colon
[9] = test system: DU-145 prostate
[10] = test system: EKVX NSCLC
[11] = test system: HCC-2998 colon
[12] = test system: HCT-116 colon
[13] = test system: HCT-15 colon
[14] = test system: HL-60(TB) leukemia
[15] = test system: HOP-62 NSCLC
[16] = test system: HOP-92 NSCLC
[17] = test system: HS 578T breast
[18] = test system: HT29 colon
[19] = test system: IGROV1 ovarian
[20] = test system: K-562 leukemia
[21] = test system: KM12 colon
[22] = test system: LOX IMVI melanoma
[23] = test system: M14 melanoma
[24] = test system: MALME-3M melanoma
[25] = test system: MCF7 breast
[26] = test system: MDA-MB-231 breast
[27] = test system: MDA-MB-435 melanoma
[28] = test system: MDA-MB-468 breast
[29] = test system: MOLT-4 leukemia
[30] = test system: NCI-H226 lung
[31] = test system: NCI-H23 lung
[32] = test system: NCI-H322M lung
[33] = test system: NCI-H460 NSCLC
[34] = test system: NCI-H522 lung
[35] = test system: NCI/ADR-RES ovarian
[36] = test system: OVCAR-3 ovarian
[37] = test system: OVCAR-4 ovarian
[38] = test system: OVCAR-5 ovarian
[39] = test system: OVCAR-8 ovarian
[40] = test system: PC-3 prostate
[41] = test system: RPMI-8226 leukemia
[42] = test system: RXF 393 renal
[43] = test system: SF-268 CNS
[44] = test system: SF-295 CNS
[45] = test system: SF-539 CNS
[46] = test system: SK-MEL-28 melanoma
[47] = test system: SK-MEL-5 melanoma
[48] = test system: SK-OV-3 ovarian
[49] = test system: SN12C renal
[50] = test system: SNB-19 CNS
[51] = test system: SNB-75 CNS
[52] = test system: SW-620 colon
[53] = test system: T-47D breast
[54] = test system: TK-10 renal
[55] = test system: U251 glioblastoma
[56] = test system: UACC-257 melanoma
[57] = test system: UACC-62 melanoma
[58] = test system: UO-31 renal

Q: How did the GI50 [1] turn out when `CCOc1ccn(-c2ccc(F)cc2)c(=O)c1C(=O)Nc1ccc(Oc2ccnc(N)c2Cl)c(F)c1` was run?
A: Its GI50 is 33.4 µM.

Q: And the TGI [1]?
A: Its TGI is over 100 µM.

Q: What about the GI50 [2] of the same compound?
A: The GI50 was 5.04 µM.

Q: What about the TGI [2] of the same compound?
A: Its TGI is 85.8 µM.

Q: What about the GI50 [3] of the same compound?
A: The GI50 was 7.37 µM.

Q: What about the TGI [3] of the same compound?
A: The TGI was 26.3 µM.

Q: What about the GI50 [4] of the same compound?
A: Its GI50 is 10.8 µM.

Q: What about the TGI [4] of the same compound?
A: The TGI was over 100 µM.

Q: What about the GI50 [5] of the same compound?
A: The GI50 was 8.41 µM.

Q: And the TGI [5]?
A: The TGI was 27.8 µM.

Q: And the GI50 [6]?
A: The GI50 was 4.4 µM.

Q: What about the TGI [6] of the same compound?
A: Its TGI is 23.1 µM.

Q: What about the GI50 [7] of the same compound?
A: The GI50 was 1.91 µM.

Q: What about the TGI [7] of the same compound?
A: The TGI was 3.51 µM.

Q: And the GI50 [8]?
A: Its GI50 is 2.06 µM.

Q: And the TGI [8]?
A: Its TGI is 4.32 µM.

Q: And the GI50 [9]?
A: The GI50 was 7.49 µM.

Q: And the TGI [9]?
A: The TGI was over 100 µM.

Q: What about the GI50 [10] of the same compound?
A: Its GI50 is 9.83 µM.

Q: And the TGI [10]?
A: The TGI was 58.6 µM.

Q: And the GI50 [11]?
A: Its GI50 is 24.3 µM.

Q: And the TGI [11]?
A: Its TGI is 68.1 µM.

Q: And the GI50 [12]?
A: Its GI50 is 4.85 µM.

Q: What about the TGI [12] of the same compound?
A: The TGI was 18.4 µM.

Q: And the GI50 [13]?
A: Its GI50 is 4.27 µM.

Q: And the TGI [13]?
A: Its TGI is 27.7 µM.

Q: What about the GI50 [14] of the same compound?
A: Its GI50 is 5.02 µM.

Q: And the TGI [14]?
A: The TGI was 13.6 µM.

Q: And the GI50 [15]?
A: The GI50 was 8.81 µM.

Q: What about the TGI [15] of the same compound?
A: Its TGI is 98.3 µM.

Q: What about the GI50 [16] of the same compound?
A: The GI50 was 5.06 µM.

Q: And the TGI [16]?
A: Its TGI is 25.9 µM.

Q: What about the GI50 [17] of the same compound?
A: The GI50 was 5.13 µM.

Q: What about the TGI [17] of the same compound?
A: Its TGI is 21.2 µM.

Q: What about the GI50 [18] of the same compound?
A: The GI50 was 4.42 µM.

Q: And the TGI [18]?
A: The TGI was 23.3 µM.

Q: What about the GI50 [19] of the same compound?
A: Its GI50 is 6.27 µM.

Q: What about the TGI [19] of the same compound?
A: The TGI was 40.5 µM.

Q: And the GI50 [20]?
A: The GI50 was 1.6 µM.

Q: What about the TGI [20] of the same compound?
A: Its TGI is 3.62 µM.

Q: And the GI50 [21]?
A: The GI50 was 0.314 µM.

Q: What about the TGI [21] of the same compound?
A: Its TGI is over 100 µM.

Q: And the GI50 [22]?
A: Its GI50 is 5.57 µM.

Q: What about the TGI [22] of the same compound?
A: The TGI was 18.2 µM.

Q: And the GI50 [23]?
A: Its GI50 is 2.95 µM.

Q: And the TGI [23]?
A: Its TGI is 11.1 µM.

Q: And the GI50 [24]?
A: Its GI50 is 4.88 µM.

Q: And the TGI [24]?
A: The TGI was 20.7 µM.

Q: What about the GI50 [25] of the same compound?
A: Its GI50 is 11.2 µM.

Q: What about the TGI [25] of the same compound?
A: Its TGI is over 100 µM.

Q: What about the GI50 [26] of the same compound?
A: The GI50 was 9.78 µM.

Q: What about the TGI [26] of the same compound?
A: Its TGI is 49.3 µM.

Q: What about the GI50 [27] of the same compound?
A: Its GI50 is 6.2 µM.

Q: What about the TGI [27] of the same compound?
A: Its TGI is 39.5 µM.

Q: And the GI50 [28]?
A: Its GI50 is 3.97 µM.

Q: And the TGI [28]?
A: The TGI was 10.3 µM.

Q: What about the GI50 [29] of the same compound?
A: The GI50 was 1.44 µM.

Q: What about the TGI [29] of the same compound?
A: The TGI was 2.9 µM.

Q: What about the GI50 [30] of the same compound?
A: The GI50 was 9.81 µM.

Q: What about the TGI [30] of the same compound?
A: The TGI was over 100 µM.

Q: What about the GI50 [31] of the same compound?
A: The GI50 was 2.64 µM.

Q: What about the TGI [31] of the same compound?
A: Its TGI is 24.6 µM.

Q: And the GI50 [32]?
A: The GI50 was 29.3 µM.

Q: What about the TGI [32] of the same compound?
A: The TGI was over 100 µM.

Q: And the GI50 [33]?
A: The GI50 was 3.35 µM.

Q: What about the TGI [33] of the same compound?
A: The TGI was 12.1 µM.

Q: What about the GI50 [34] of the same compound?
A: The GI50 was 4.35 µM.

Q: And the TGI [34]?
A: The TGI was 15.7 µM.

Q: What about the GI50 [35] of the same compound?
A: The GI50 was 10.1 µM.

Q: What about the TGI [35] of the same compound?
A: The TGI was 28.7 µM.

Q: And the GI50 [36]?
A: Its GI50 is 5.47 µM.

Q: What about the TGI [36] of the same compound?
A: The TGI was 27.3 µM.

Q: And the GI50 [37]?
A: Its GI50 is 8.05 µM.

Q: And the TGI [37]?
A: Its TGI is over 100 µM.

Q: And the GI50 [38]?
A: The GI50 was 19.7 µM.

Q: And the TGI [38]?
A: Its TGI is over 100 µM.

Q: And the GI50 [39]?
A: Its GI50 is 14.3 µM.

Q: And the TGI [39]?
A: Its TGI is 48.1 µM.

Q: And the GI50 [40]?
A: Its GI50 is 4.15 µM.

Q: And the TGI [40]?
A: Its TGI is 90.3 µM.

Q: What about the GI50 [41] of the same compound?
A: Its GI50 is 3.52 µM.

Q: What about the TGI [41] of the same compound?
A: The TGI was over 100 µM.

Q: And the GI50 [42]?
A: Its GI50 is 4 µM.

Q: And the TGI [42]?
A: Its TGI is 18.6 µM.

Q: And the GI50 [43]?
A: The GI50 was 2.01 µM.

Q: And the TGI [43]?
A: The TGI was 8.11 µM.

Q: And the GI50 [44]?
A: The GI50 was 3.81 µM.

Q: What about the TGI [44] of the same compound?
A: The TGI was 57.7 µM.

Q: And the GI50 [45]?
A: Its GI50 is 5.67 µM.

Q: What about the TGI [45] of the same compound?
A: Its TGI is 26.9 µM.

Q: What about the GI50 [46] of the same compound?
A: The GI50 was 5.1 µM.

Q: What about the TGI [46] of the same compound?
A: Its TGI is 38.7 µM.

Q: What about the GI50 [47] of the same compound?
A: Its GI50 is 2.99 µM.

Q: And the TGI [47]?
A: The TGI was 12.2 µM.

Q: What about the GI50 [48] of the same compound?
A: The GI50 was 4.37 µM.

Q: And the TGI [48]?
A: Its TGI is 20.9 µM.

Q: What about the GI50 [49] of the same compound?
A: The GI50 was 1.95 µM.

Q: What about the TGI [49] of the same compound?
A: The TGI was 46.2 µM.

Q: And the GI50 [50]?
A: The GI50 was 22.4 µM.

Q: And the TGI [50]?
A: The TGI was over 100 µM.

Q: What about the GI50 [51] of the same compound?
A: The GI50 was 15.4 µM.

Q: And the TGI [51]?
A: Its TGI is 35.1 µM.

Q: And the GI50 [52]?
A: The GI50 was 12 µM.

Q: And the TGI [52]?
A: Its TGI is 28.9 µM.

Q: And the GI50 [53]?
A: The GI50 was 1.67 µM.

Q: And the TGI [53]?
A: Its TGI is 4.29 µM.

Q: And the GI50 [54]?
A: Its GI50 is 16.2 µM.

Q: And the TGI [54]?
A: The TGI was 95 µM.

Q: What about the GI50 [55] of the same compound?
A: Its GI50 is 16.3 µM.

Q: And the TGI [55]?
A: The TGI was over 100 µM.

Q: And the GI50 [56]?
A: The GI50 was 6.47 µM.

Q: What about the TGI [56] of the same compound?
A: The TGI was 27.5 µM.

Q: And the GI50 [57]?
A: Its GI50 is 2.62 µM.

Q: And the TGI [57]?
A: Its TGI is 12.4 µM.

Q: What about the GI50 [58] of the same compound?
A: Its GI50 is 8.63 µM.

Q: What about the TGI [58] of the same compound?
A: The TGI was 59.3 µM.
